Source: PubChem BioAssay AID200 (DTP/NCI, 2004)
Values joined by “and” are separate entries in the source; they are usually repeats but may differ in a detail not shown here. Equal values may be shown once. Inconclusive results and toxic doses are left out. Where a SMILES comes first, the peptide text is derived from it.

Test system: B6C3F1 mice, B16 melanoma ip, median survival T/C
Experiment: NCI In Vivo Anticancer Drug Screen. Data for tumor model B16 Melanoma (intraperitoneal) in B6C3F1 mice
Details: endpoint: median survival time, higher = longer survival
Protocol: The antitumor activity of compounds was measured in mice bearing transplantable tumors. Survival or tumor size were measured and the results are expressed as the measurement made in the treated group (T) divided by the measurement made in the vehicle treated control group (C). The tumor model used in this assay is B16 Melanoma (intraperitoneal) in B6C3F1 mice

[1] = dose: 0.25 mg/kg/injection, schedule: Q01DX009 (ip), vehicle: water
[2] = dose: 0.5 mg/kg/injection, schedule: Q01DX009 (ip), vehicle: water
[3] = dose: 100.0 mg/kg/injection, schedule: Q01DX009 (ip), vehicle: Klucel (hydroxypropylcellulose) (HPC)
[4] = dose: 200.0 mg/kg/injection, schedule: Q01DX009 (ip), vehicle: Klucel (hydroxypropylcellulose) (HPC)

## NCCC(=O)NC(Cc1cnc[nH]1)C(=O)O (stereo not given)
dose: 50.0 mg/kg/injection, schedule: Q01DX009 (ip), vehicle: saline
  T/C: 102 % of control
dose: 100.0 mg/kg/injection, schedule: Q01DX009 (ip), vehicle: saline
  T/C: 104 % of control
dose: 200.0 mg/kg/injection, schedule: Q01DX009 (ip), vehicle: saline
  T/C: 103 % of control
dose: 400.0 mg/kg/injection, schedule: Q01DX009 (ip), vehicle: saline
  T/C: 104 % of control

## CC(C)(C[NH-])C[NH-].[Cl][Pt+2][Cl]
[1]
  T/C: 111 % of control
[2]
  T/C: 123 % of control
dose: 2.0 mg/kg/injection, schedule: Q01DX009 (ip), vehicle: water
  T/C: 175 % of control
dose: 2.0 mg/kg/injection, schedule: Q04DX003 (ip), vehicle: water
  T/C: 168 % of control
dose: 4.0 mg/kg/injection, schedule: Q04DX003 (ip), vehicle: water
  T/C: 200 % of control

## C=C(C)C12OC3(CCCCCCCCC)OC1C1C4OC4(COC(=O)CCCCCCCCCCCCCCC)C(O)C4(O)C(=O)C(C)=CC4C1(O3)C(C)C2OC(=O)c1ccccc1 (stereo not given)
dose: 5.0 micrograms/kg/injection, schedule: Q01DX009 (ip), vehicle: saline + alcohol
  T/C: 96 % of control
dose: 10.0 micrograms/kg/injection, schedule: Q01DX009 (ip), vehicle: saline + alcohol
  T/C: 99 % of control
dose: 20.0 micrograms/kg/injection, schedule: Q01DX009 (ip), vehicle: saline + alcohol
  T/C: 86 % of control
dose: 40.0 micrograms/kg/injection, schedule: Q01DX009 (ip), vehicle: saline + alcohol
  T/C: 88 % of control

## O=CC(O)C(O)C(O)C(O)CO (stereo not given)
dose: 75.0 mg/kg/injection, schedule: Q01DX009 (ip), vehicle: saline
  T/C: 95 % of control
dose: 150.0 mg/kg/injection, schedule: Q01DX009 (ip), vehicle: saline
  T/C: 102 % of control
dose: 300.0 mg/kg/injection, schedule: Q01DX009 (ip), vehicle: saline
  T/C: 103 % of control
dose: 600.0 mg/kg/injection, schedule: Q01DX009 (ip), vehicle: saline
  T/C: 87 % of control
dose: 1200.0 mg/kg/injection, schedule: Q01DX009 (ip), vehicle: saline
  T/C: 96 % of control

## NCC(=O)NC(Cc1ccc(O)cc1)C(=O)NCC(=O)O (stereo not given) (HELM PEPTIDE1{G.[O=C(C(Cc1ccc(O)cc1)N[*:1])[*:2]].G}$$$$V2.0)
dose: 50.0 mg/kg/injection, schedule: Q01DX009 (ip), vehicle: Klucel (hydroxypropylcellulose) (HPC)
  T/C: 96 % of control
[3]
  T/C: 98 % of control
[4]
  T/C: 106 % of control

## O=NN(CCCl)C(=O)NC1[C@H](O)CCC[C@@H]1O (stereo not given in full)
dose: 0.62 mg/kg/injection, schedule: Q01DX009 (ip), vehicle: saline
  T/C: 159 % of control
dose: 1.25 mg/kg/injection, schedule: Q01DX009 (ip), vehicle: saline
  T/C: 225 % of control
dose: 2.5 mg/kg/injection, schedule: Q01DX009 (ip), vehicle: saline
  T/C: 251 % of control
dose: 5.0 mg/kg/injection, schedule: Q01DX009 (ip), vehicle: saline
  T/C: 190 % of control

## [Cl][Sn]([c]1ccccc1)[c]1ccccc1
dose: 3.12 mg/kg/injection, schedule: Q01DX009 (ip), vehicle: saline
  T/C: 116 % of control
dose: 3.13 mg/kg/injection, schedule: Q01DX009 (ip), vehicle: saline
  T/C: 93 % of control
dose: 6.25 mg/kg/injection, schedule: Q01DX009 (ip), vehicle: saline
  T/C: 122 % of control and 106 % of control
dose: 12.5 mg/kg/injection, schedule: Q01DX009 (ip), vehicle: saline
  T/C: 107 % of control
dose: 25.0 mg/kg/injection, schedule: Q01DX009 (ip), vehicle: saline
  T/C: 118 % of control

## CCC(C)C(NC(=O)OC(C)(C)C)C(=O)O (stereo not given)
[3]
  T/C: 99 % of control
[4]
  T/C: 92 % of control
dose: 400.0 mg/kg/injection, schedule: Q01DX009 (ip), vehicle: Klucel (hydroxypropylcellulose) (HPC)
  T/C: 87 % of control

## CC1OC2CC(=O)OC2C2=C1C(=O)c1cc(-c3cc(O)c4c(c3)C(=O)C3=C(C4=O)C4OC(=O)CC4OC3C)cc(O)c1C2=O (stereo not given)
dose: 0.5 mg/kg/injection, schedule: Q01DX009 (ip), vehicle: other
  T/C: 90 % of control

## CC[C@]1(O)C[C@H]2CN(CCc3c([nH]c4ccccc34)[C@@](C(=O)OC)(c3cc4c(cc3OC)N(C)[C@H]3[C@@](O)(C(=O)OC)[C@H](OC(C)=O)[C@]5(CC)C=CCN6CC[C@]43[C@@H]65)C2)C1
dose: 0.12 mg/kg/injection, schedule: Q01DX009 (ip), vehicle: saline
  T/C: 194 % of control
dose: 0.12 mg/kg/injection, schedule: Q01DX009 (ip), vehicle: water
  T/C: 161 % of control
dose: 0.25 mg/kg/injection, schedule: Q01DX009 (ip), vehicle: saline
  T/C: 234 % of control
[1]
  T/C: 171 % of control and 199 % of control and 221 % of control
dose: 0.5 mg/kg/injection, schedule: Q01DX009 (ip), vehicle: saline
  T/C: 215 % of control
[2]
  T/C: 176 % of control and 212 % of control and 309 % of control
dose: 15.62 micrograms/kg/injection, schedule: Q01DX009 (ip), vehicle: water
  T/C: 159 % of control
dose: 31.25 micrograms/kg/injection, schedule: Q01DX009 (ip), vehicle: water
  T/C: 154 % of control
dose: 62.5 micrograms/kg/injection, schedule: Q01DX009 (ip), vehicle: water
  T/C: 180 % of control
dose: 125.0 micrograms/kg/injection, schedule: Q01DX009 (ip), vehicle: water
  T/C: 206 % of control
dose: 250.0 micrograms/kg/injection, schedule: Q01DX009 (ip), vehicle: water
  T/C: 206 % of control
